Test results from patent US20060154984A1, “Therapeutic use of acyl glycerols and the nitrogen- and sulphur- containing analogues thereof” (priority 2003, published 2006).

Key:
[1] = system: 6-OHDA-induced dopaminergic lesion; test: Rat model of Parkinson's disease (6-OHDA), behavioral sensitization to apomorphine; type: in vivo; settings: Wistar rats, 300 mg/kg per day in diet, 7 days before and 15 days after 6-OHDA lesion
Method: Adult male Wistar rats (280-300 g) were maintained on a 12-hour light/dark cycle at a constant temperature of 20±3° C. Animals had access to food and water ad libitum and weight gain was recorded.
Animals were fed a normal diet or a diet supplemented with the inventive compounds (300 mg/kg per day) for 7 days before induction of the dopaminergic lesion and for 15 days after induction of same.
6-hydroxydopamine (6-OHDA) is a neurotoxin taken up by dopaminergic neurons via a dopamine transporter. Injection of said compound into striatonigral projections induces selective destruction of dopaminergic neurons, and has allowed the development of many animal models of Parkinson's disease (Bordet et al., 2000).
Seven days after commencement of treatment with the inventive compounds, the rats were stereotactically injected with 6-OHDA (4 μg for 8 min) or buffer (sham rats) in the left part of the median tract of the telencephalon to induce striatonigral denervation.
Apomorphine is a dopaminergic agonist which stimulates D1 and D2 receptors. The intensity of rotational behavior is an index allowing to measure the severity of the striatonigral lesion. At the end of the treatment, rats received an intraperitoneal injection of apomorphine and rotational behavior was evaluated 15 minutes after sensitization and for a 10 minute period.

LDL = LDL oxidation by copper, conjugated diene formation (OD 234 nm); type: biochemical; settings: 10^−4 M
Method: Oxidation of LDL is an important modification which plays a major role in the onset and development of atherosclerosis (Jurgens, Hoff et al. 1987). […] Unless otherwise indicated, all reagents were from Sigma (St Quentin, France).
LDL were prepared as described by Lebeau et al. (Lebeau, Furman et al. 2000). The solutions of the test compounds were prepared at 10^−2 M in ethanol and diluted in PBS so that the final concentration ranged from 0.1 to 100 μM with a total ethanol concentration of 1% (VN).
Before oxidation, EDTA was removed from the LDL preparation by dialysis. The oxidation reaction was then carried out at 30° C. by adding 100 μl of 16.6 μM CuSO4 to 800 μl of LDL (125 μg protein/ml) and 100 μl of a test compound solution. The formation of dienes, the species to be followed, was measured by the optical density at 234 nm in the samples treated with the compounds in the presence or absence of copper. Optical density at 234 nm was measured every 10 minutes for 8 hours on a thermostated spectrophotometer (Kontron Uvikon 930). The analyses were carried out in triplicate. A compound was considered to have antioxidant activity when it shifted the lag phase latency relative to the control sample. […] FIG. 4 presents an example of the results obtained with the inventive compounds.

`CCCCCCCCCCCCCCSCC(=O)OCC(COC(=O)CSCCCCCCCCCCCCCC)OC(=O)CSCCCCCCCCCCCCCC` [Ex 4a, 1,2,3-tritetradecylthioacetylglycerol] was tested, and the “number of apomorphine-induced rotations” value [1] was “prophylactic and curative properties”, the “LDL oxidation rate (rate of conjugated diene formation)” value (LDL; copper alone 3 nmol/min/mg of LDL) was 1 nmol/min/mg of LDL and the “decrease in the maximum amount of conjugated dienes formed” value (LDL; copper alone 496 nmol per mg of LDL) was 60%. The “lag phase for conjugated diene formation” value (LDL; copper alone 104 minutes) was 270 min, the “decrease in the oxidation rate” value (LDL; relative to copper alone) was 66% and the “increase in the lag phase” value (LDL; relative to copper alone) was 160%.
